Test results: ChEMBL document CHEMBL1201862, “PubChem BioAssay data set” (2004)
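48-hour exposure; five concentrations; linearly interpolated endpoints. Abbreviation: GI50, concentration required for 50% inhibition of growth.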 Calls of active or inactive are those of the source. No stated cut-off is given here; in the data, active = GI50 up to about 1.1 µM and inactive = higher.

Legend:
Test in all cases: inhibition of tumour cell growth, NCI panel, 48 h
CAKI-1 = tested on: CAKI-1
HCC 2998 = tested on: HCC 2998
HCT-116 = tested on: HCT-116
HCT-15 = tested on: HCT-15
HOP-18 = tested on: HOP-18
HOP-62 = tested on: HOP-62
IGROV-1 = tested on: IGROV-1
Malme-3M = tested on: Malme-3M
NCI-H23 = tested on: NCI-H23
OVCAR-3 = tested on: OVCAR-3
OVCAR-5 = tested on: OVCAR-5
RXF 393 = tested on: RXF 393
SF-295 = tested on: SF-295
SK-MEL-28 = tested on: SK-MEL-28
SK-MEL-2 = tested on: SK-MEL-2
SN12C = tested on: SN12C
UACC-257 = tested on: UACC-257
DU-145 = tested on: DU-145
MDA-MB-231 = tested on: MDA-MB-231
MDA-N = tested on: MDA-N

Structure (SMILES) | GI50 (CAKI-1) | GI50 (HCC 2998) | GI50 (HCT-116) | GI50 (HCT-15) | GI50 (HOP-18) | GI50 (HOP-62) | GI50 (IGROV-1) | GI50 (Malme-3M) | GI50 (NCI-H23) | GI50 (OVCAR-3) | GI50 (OVCAR-5) | GI50 (RXF 393) | GI50 (SF-295) | GI50 (SK-MEL-28) | GI50 (SK-MEL-2) | GI50 (SN12C) | GI50 (UACC-257) | GI50 (DU-145) | GI50 (MDA-MB-231) | GI50 (MDA-N)
CCOC(=N)CC(=O)Nc1ccc(Cl)cc1 | > 100 µM (inactive) | > 100 µM (inactive) | > 100 µM (inactive) | > 100 µM | 1.73 µM (inactive) | > 100 µM (inactive) | > 100 µM (inactive) | > 100 µM (inactive) | > 100 µM (inactive) | > 100 µM (inactive) | > 100 µM (inactive) | > 100 µM (inactive) | > 100 µM (inactive) | > 100 µM (inactive) | > 100 µM (inactive) | > 100 µM (inactive) | > 100 µM (inactive) | – | – | –
O=C(/C=C/c1c(O)ccc2ccccc12)c1ccccc1 | > 100 µM (inactive) | > 100 µM (inactive) | > 100 µM (inactive) | > 100 µM | 36.8 µM (inactive) | > 100 µM (inactive) | > 100 µM (inactive) | > 100 µM (inactive) | 95.7 µM (inactive) | > 100 µM (inactive) | > 100 µM (inactive) | > 100 µM (inactive) | > 100 µM (inactive) | > 100 µM (inactive) | > 100 µM (inactive) | > 100 µM (inactive) | > 100 µM (inactive) | – | – | –
Cc1cc2cc(Cl)ccc2nc1C(=O)c1ccccc1 | > 100 µM (inactive) | > 100 µM (inactive) | > 100 µM (inactive) | > 100 µM | > 100 µM (inactive) | 43.1 µM (inactive) | > 100 µM (inactive) | > 100 µM (inactive) | > 100 µM (inactive) | > 100 µM (inactive) | > 100 µM (inactive) | 22.5 µM (inactive) | 27.8 µM (inactive) | > 100 µM (inactive) | > 100 µM (inactive) | > 100 µM (inactive) | 32.4 µM (inactive) | – | – | –
COc1cc(C2C(Cl)C(=O)N2NC(=O)Cc2ccccc2)cc(Br)c1O (stereo not given) | > 100 µM (inactive) | > 100 µM (inactive) | 71.4 µM (inactive) | 51.8 µM | 71.6 µM (inactive) | > 100 µM (inactive) | > 100 µM (inactive) | > 100 µM (inactive) | 76.9 µM (inactive) | 61 µM (inactive) | > 100 µM (inactive) | 92.3 µM (inactive) | > 100 µM (inactive) | > 100 µM (inactive) | > 100 µM (inactive) | > 100 µM (inactive) | > 100 µM (inactive) | – | – | –
Cc1noc(C)c1CCCOC1COc2ccccc2OCCOCCOc2ccccc2OC1 | > 100 µM (inactive) | > 100 µM (inactive) | – | > 100 µM | > 100 µM (inactive) | > 100 µM (inactive) | > 100 µM (inactive) | 80.4 µM (inactive) | > 100 µM (inactive) | > 100 µM (inactive) | > 100 µM (inactive) | > 100 µM (inactive) | > 100 µM (inactive) | > 100 µM (inactive) | > 100 µM (inactive) | > 100 µM (inactive) | > 100 µM (inactive) | – | – | –
O=C(O)CCC(=O)N1C/C(=C\c2ccccc2)C(=O)/C(=C/c2ccccc2)C1 | 4.71 µM (inactive) | 2.17 µM (inactive) | 1.75 µM (inactive) | 2.06 µM | 5.55 µM (inactive) | 16.8 µM (inactive) | 3.45 µM (inactive) | 2.33 µM (inactive) | 3.64 µM (inactive) | 2.41 µM (inactive) | 15 µM (inactive) | 3.67 µM (inactive) | 2.44 µM (inactive) | 1.97 µM (inactive) | 1.82 µM (inactive) | 1.93 µM (inactive) | 2.29 µM (inactive) | – | – | –
C/C(=N\NC(=N)N)C(CN(C)C)C(c1ccccc1)c1c(O)c2ccccc2oc1=O (stereo not given) | > 100 µM (inactive) | > 100 µM (inactive) | > 100 µM (inactive) | > 100 µM | > 100 µM (inactive) | > 26.6 µM (inactive) | > 100 µM (inactive) | > 100 µM (inactive) | > 100 µM (inactive) | > 100 µM (inactive) | > 100 µM (inactive) | – | > 100 µM (inactive) | > 100 µM (inactive) | > 100 µM (inactive) | > 100 µM (inactive) | > 100 µM (inactive) | > 100 µM (inactive) | > 100 µM (inactive) | > 100 µM (inactive)
